The source of these data is patent publication US11248010B2, “Compounds, compositions, and methods for modulating CFTR” (Proteostasis Therapeutics, Inc., priority 2016, dated 2022).

SMILES strings stand for the structures.

T1 sequence (P13569 with tags, fused parts or gaps DEL508-508): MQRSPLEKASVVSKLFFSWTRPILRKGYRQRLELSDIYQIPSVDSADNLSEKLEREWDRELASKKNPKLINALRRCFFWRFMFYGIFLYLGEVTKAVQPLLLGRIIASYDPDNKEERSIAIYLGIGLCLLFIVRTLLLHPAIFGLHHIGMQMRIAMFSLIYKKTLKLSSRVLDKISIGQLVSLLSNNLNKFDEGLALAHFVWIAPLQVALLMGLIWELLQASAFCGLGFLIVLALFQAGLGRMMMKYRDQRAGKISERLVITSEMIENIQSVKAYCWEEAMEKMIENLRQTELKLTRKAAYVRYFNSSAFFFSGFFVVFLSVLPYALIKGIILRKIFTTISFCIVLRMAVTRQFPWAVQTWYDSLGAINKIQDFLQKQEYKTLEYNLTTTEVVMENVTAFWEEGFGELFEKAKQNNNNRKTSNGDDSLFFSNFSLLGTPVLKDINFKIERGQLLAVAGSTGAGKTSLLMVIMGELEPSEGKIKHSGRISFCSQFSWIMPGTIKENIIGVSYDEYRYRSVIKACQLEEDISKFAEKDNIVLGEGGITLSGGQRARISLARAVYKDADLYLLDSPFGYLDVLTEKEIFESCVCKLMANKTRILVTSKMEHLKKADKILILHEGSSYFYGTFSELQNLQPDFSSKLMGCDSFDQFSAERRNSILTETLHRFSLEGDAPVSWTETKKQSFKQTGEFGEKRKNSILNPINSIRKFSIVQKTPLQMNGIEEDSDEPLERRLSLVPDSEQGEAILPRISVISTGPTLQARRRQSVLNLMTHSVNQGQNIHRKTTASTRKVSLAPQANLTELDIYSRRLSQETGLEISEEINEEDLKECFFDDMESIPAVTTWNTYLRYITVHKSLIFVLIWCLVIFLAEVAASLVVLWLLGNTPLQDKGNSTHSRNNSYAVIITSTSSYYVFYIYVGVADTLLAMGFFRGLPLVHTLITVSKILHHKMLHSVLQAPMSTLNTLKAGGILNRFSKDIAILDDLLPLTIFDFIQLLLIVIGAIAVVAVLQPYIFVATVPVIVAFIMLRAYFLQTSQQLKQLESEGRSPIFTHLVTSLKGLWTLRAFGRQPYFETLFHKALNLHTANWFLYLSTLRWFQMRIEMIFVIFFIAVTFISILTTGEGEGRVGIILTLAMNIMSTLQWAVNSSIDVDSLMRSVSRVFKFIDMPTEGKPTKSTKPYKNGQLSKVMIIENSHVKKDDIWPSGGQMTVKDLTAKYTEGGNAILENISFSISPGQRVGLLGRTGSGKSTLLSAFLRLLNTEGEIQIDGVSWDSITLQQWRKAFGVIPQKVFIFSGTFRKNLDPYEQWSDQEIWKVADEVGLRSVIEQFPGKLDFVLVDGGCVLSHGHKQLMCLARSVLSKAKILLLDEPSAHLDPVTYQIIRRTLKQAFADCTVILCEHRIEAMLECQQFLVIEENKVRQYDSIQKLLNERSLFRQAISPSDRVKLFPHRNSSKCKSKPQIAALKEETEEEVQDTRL

The assay has as its target T1, ΔF508-CFTR (Homo sapiens, UniProt P13569, DEL508-508).
T1 construct: primary lung epithelial cells (hBEs) homozygous for the Cystic Fibrosis-causing ΔF508 mutation are differentiated; endogenous in cells; host or cells: primary human bronchial epithelial cells (hBEs) homozygous for ΔF508, differentiated at an air-liquid interface
Briefly: Ussing measurements (CFTR activity assay). As to conditions: compound at 1 uM; activity relative to a corrector (VX-809 (3 uM)); primary lung epithelial cells (hBEs) homozygous for ΔF508; CFTRinh-172-inhibitable short-circuit current. The class given is cell-based. The method, then: As discussed above, Ussing measurements are used to measure CFTR activity. In this method, primary lung epithelial cells (hBEs) homozygous for the Cystic Fibrosis-causing ΔF508 mutation are differentiated for a minimum of 4 weeks in an air-liquid interface on SnapWell filter plates prior to the Ussing measurements. Cells are apically mucus-washed for 30 minutes prior to treatment with compounds. The basolateral media is removed and replaced with media containing the compound of interest diluted to its final concentration from DMSO stocks. Treated cells are incubated at 37° C. and 5% CO2 for 24 hours. At the end of the treatment period, the cells on filters are transferred to the Ussing chamber and equilibrated for 30 minutes. The short-circuit current is measured in voltage clamp-mode (Vhold=0 mV), and the entire assay is conducted at a temperature of 36° C.-36.5° C. Once the voltages are stabilized, the chambers are clamped, and data is recorded by pulse readings every 5 seconds. Following baseline current stabilization, the following additions can be applied and the changes in current and resistance of the cells can be monitored:
1. Benzamil to the apical chamber to inhibit ENaC sodium channel.
2. Forskolin to both chambers to activate ΔF508-CFTR by phosphorylation.
3. VX-770 to the apical chamber to potentiate ΔF508-CFTR channel opening.
4. CFTRinh-172 to the apical chamber to inhibit ΔF508-CFTR Cl— conductance.
The inhibitable current (that current that is blocked by CFTRinh-172) is measured as the specific activity of the ΔF508-CFTR channel, and increases in response to compound in this activity over that observed in vehicle-treated samples are identified as the correction of ΔF508-CFTR function imparted by the compound tested.
(+ indicates activity <200% of a corrector (VX-809 (3 uM)) with compound at 1 uM; ++ indicates activity >200% of a corrector (VX-809 (3 uM)) with compound at 1 uM.
In the case of `C[Si](C)(C)c1cc([Si](C)(C)C)c(NC(=O)c2c[nH]c3ccccc3c2=O)cc1O` [Compound 11, N-(5-Hydroxy-2,4-bis(trimethylsilyl)phenyl)-4-oxo-1,4-dihydroquinoline-3-carboxamide], the Activity result is listed as “++ (activity >200% of a corrector (VX-809 (3 uM)) with compound at 1 uM)”.

For `CC(C)(C)c1cc([Si](C)(C)c2ccccc2)c(O)cc1NC(=O)c1c[nH]c2ccccc2c1=O` [Compound 7, N-(2-(tert-Butyl)-4-(dimethyl(phenyl)silyl)-5-hydroxyphenyl)-4-oxo-1,4-dihydroquinoline-3-carboxamide], the Activity entry is “++ (activity >200% of a corrector (VX-809 (3 uM)) with compound at 1 uM)”.

Regarding `CC[Si](C)(C)c1cc(C(C)(C)C)c(NC(=O)c2c[nH]c3ccccc3c2=O)cc1O` [Compound 2, N-[2-tert-Butyl-4-(ethyldimethylsilyl)-5-hydroxyphenyl]-4-oxo-1,4-dihydroquinoline-3-carboxamide], the Activity result is “++ (activity >200% of a corrector (VX-809 (3 uM)) with compound at 1 uM)”.

As to `CC(C)[Si](C)(C)c1cc(C(C)(C)C)c(NC(=O)c2c[nH]c3ccccc3c2=O)cc1O` [Compound 6, N-[2-tert-Butyl-4-[dimethyl(propan-2-yl)silyl]-5-hydroxyphenyl]-4-oxo-1,4-dihydroquinoline-3-carboxamide], the Activity result was “++ (activity >200% of a corrector (VX-809 (3 uM)) with compound at 1 uM)”.

Turning to `CC[Si](C)(CC)c1cc(C(C)(C)C)c(NC(=O)c2c[nH]c3ccccc3c2=O)cc1O` [Compound 3, N-[2-tert-Butyl-4-[diethyl(methyl)silyl]-5-hydroxyphenyl]-4-oxo-1,4-dihydroquinoline-3-carboxamide], the Activity result is given as “++ (activity >200% of a corrector (VX-809 (3 uM)) with compound at 1 uM)”.

Take `CC(C)(C)c1cc([Si](C)(C)C)c(NC(=O)c2c[nH]c3ccccc3c2=O)cc1O` [Compound 8, N-[4-tert-Butyl-5-hydroxy-2-(trimethylsilyl)phenyl]-4-oxo-1,4-dihydroquinoline-3-carboxamide]: the Activity entry is “++ (activity >200% of a corrector (VX-809 (3 uM)) with compound at 1 uM)”.

With `C[Si](C)(C)c1ccc(NC(=O)c2c[nH]c3ccccc3c2=O)cc1O` [Compound 17, N-(3-Hydroxy-4-(trimethylsilyl)phenyl)-4-oxo-1,4-dihydroquinoline-3-carboxamide], the Activity entry is “++ (activity >200% of a corrector (VX-809 (3 uM)) with compound at 1 uM)”.

Turning to `C[Si](C)(C)c1cc(F)c(NC(=O)c2c[nH]c3ccccc3c2=O)cc1O` [Compound 18, N-(2-Fluoro-5-hydroxy-4-(trimethylsilyl)phenyl)-4-oxo-1,4-dihydroquinoline-3-carboxamide], the Activity result is listed as “++ (activity >200% of a corrector (VX-809 (3 uM)) with compound at 1 uM)”.

Take `CC(C)(C)c1cc([Si](C)(C)C)c(O)cc1NC(=O)c1c[nH]c2ccccc2c1=O` [Compound 1, N-[2-tert-Butyl-5-hydroxy-4-(trimethylsilyl)phenyl]-4-oxo-1,4-dihydroquinoline-3-carboxamide]: the Activity entry is recorded as “++ (activity >200% of a corrector (VX-809 (3 uM)) with compound at 1 uM)”.

For `C[Si](C)(C)c1cc(C(F)(F)F)c(NC(=O)c2c[nH]c3ccccc3c2=O)cc1O` [Compound 19, N-(5-Hydroxy-2-(trifluoromethyl)-4-(trimethylsilyl)phenyl)-4-oxo-1,4-dihydroquinoline-3-carboxamide], the Activity entry was “++ (activity >200% of a corrector (VX-809 (3 uM)) with compound at 1 uM)”.

For the compound `[2H]C([2H])([2H])[Si](c1cc([Si](C([2H])([2H])[2H])(C([2H])([2H])[2H])C([2H])([2H])[2H])c(NC(=O)c2c[nH]c3ccccc3c2=O)cc1O)(C([2H])([2H])[2H])C([2H])([2H])[2H]` [Compound 13, N-(5-Hydroxy-2,4-bis(tris(methyl-d3)silyl)phenyl)-4-oxo-1,4-dihydroquinoline-3-carboxamide], the Activity result is listed as “++ (activity >200% of a corrector (VX-809 (3 uM)) with compound at 1 uM)”.

Consider `[2H]C([2H])([2H])[Si](c1cc(C(C)(C)C)c(NC(=O)c2c[nH]c3ccccc3c2=O)cc1O)(C([2H])([2H])[2H])C([2H])([2H])[2H]` [Compound 12, N-(2-(tert-Butyl)-5-hydroxy-4-(tris(methyl-d3)silyl)phenyl)-4-oxo-1,4-dihydroquinoline-3-carboxamide], for which the Activity entry is given as “++ (activity >200% of a corrector (VX-809 (3 uM)) with compound at 1 uM)”.

As for `CC(C)(C)c1cc([Si](C)(C)C(C)(C)C)c(O)cc1NC(=O)c1c[nH]c2ccccc2c1=O` [Compound 5, N-(2-tert-Butyl-4-(tert-butyldimethylsilyl)-5-hydroxyphenyl)-4-oxo-1,4-dihydroquinoline-3-carboxamide], the Activity result is on record as “++ (activity >200% of a corrector (VX-809 (3 uM)) with compound at 1 uM)”.

Take `CC[Si](CC)(CC)c1cc(C(C)(C)C)c(NC(=O)c2c[nH]c3ccccc3c2=O)cc1O` [Compound 4, N-(2-(tert-Butyl)-5-hydroxy-4-(triethylsilyl)phenyl)-4-oxo-1,4-dihydroquinoline-3-carboxamide]: the Activity entry is listed as “+ (activity <200% of a corrector (VX-809 (3 uM)) with compound at 1 uM)”.

Regarding `CC(C)(C)c1cc([Si](C)(C)C(C)(C)C)c(NC(=O)c2c[nH]c3ccccc3c2=O)cc1O` [Compound 10, N-(4-(tert-Butyl)-2-(tert-butyldimethylsilyl)-5-hydroxyphenyl)-4-oxo-1,4-dihydroquinoline-3-carboxamide], the Activity entry is “++ (activity >200% of a corrector (VX-809 (3 uM)) with compound at 1 uM)”.
